Laboratory results as given in publication PMC9916658, “Design and Synthesis of New Quinazolin-4-one Derivatives with Negative mGlu7 Receptor Modulation Activity and Antipsychotic-Like Properties” (International Journal of Molecular Sciences, 2023).
Values after ≈ are worked out from the molar mass of the structure shown. Like-named read-outs stand apart in the source and are kept apart here.

How the values were obtained:
[1] = biological target: T1, recombinant human mGlu7 receptor (FAST-0154C) (Homo sapiens, UniProt Q14831); experiment: NAM mGlu7 activity on CHO-K1 cell line, cAMP HTRF (EuroscreenFast protocol); format: cell-based; conditions: CHO-K1 human mGlu7, agonist L-AP4 at EC80
T1 construct: host or cells: CHO-K1
T1 sequence (Q14831 35-915): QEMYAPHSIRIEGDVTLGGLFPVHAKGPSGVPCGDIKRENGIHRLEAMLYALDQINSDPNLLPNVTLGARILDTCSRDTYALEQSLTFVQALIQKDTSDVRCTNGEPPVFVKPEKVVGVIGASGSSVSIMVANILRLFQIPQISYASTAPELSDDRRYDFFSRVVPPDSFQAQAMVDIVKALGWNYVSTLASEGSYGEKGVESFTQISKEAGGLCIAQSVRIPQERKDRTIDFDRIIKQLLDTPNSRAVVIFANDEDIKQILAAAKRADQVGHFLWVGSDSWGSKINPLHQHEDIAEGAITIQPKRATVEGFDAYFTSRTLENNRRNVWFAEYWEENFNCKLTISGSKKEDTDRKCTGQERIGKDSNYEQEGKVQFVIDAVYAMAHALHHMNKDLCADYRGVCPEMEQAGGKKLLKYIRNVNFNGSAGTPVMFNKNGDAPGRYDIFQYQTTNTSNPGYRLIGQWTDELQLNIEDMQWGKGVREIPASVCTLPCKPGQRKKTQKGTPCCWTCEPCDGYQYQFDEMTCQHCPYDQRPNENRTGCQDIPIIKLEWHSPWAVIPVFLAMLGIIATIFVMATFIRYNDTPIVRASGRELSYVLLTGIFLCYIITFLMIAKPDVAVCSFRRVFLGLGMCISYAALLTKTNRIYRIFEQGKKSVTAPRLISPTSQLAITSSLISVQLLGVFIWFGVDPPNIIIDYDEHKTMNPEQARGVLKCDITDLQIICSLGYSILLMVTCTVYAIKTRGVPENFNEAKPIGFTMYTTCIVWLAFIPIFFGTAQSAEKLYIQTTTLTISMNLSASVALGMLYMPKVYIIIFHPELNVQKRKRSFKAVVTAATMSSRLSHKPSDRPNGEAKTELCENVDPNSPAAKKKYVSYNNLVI
From the text: with inducible expression of human mGlu7 receptor. […]
2.2. NAM mGlu7 receptor activity on CHO-K1 cell line according to EuroscreenFast protocol
ALX-065 and ALX-171 were testing for negative allosteric modulator (NAM) activity on alternative […]
mGlu7 cell line (recombinant human mGlu7 receptor (FAST-0154C) using cAMP HTRF functional assay) […]
by EuroscreenFast company according to the provided methodology.
Receptor Accession Cell line Reference Reference
Number agonist antagonist
Compounds were tested for NAM activity at the human mGlu7 receptor (FAST-0154C) in dose […]
response and in duplicates (range concentration: 1 nM – 25 µM) […]
cAMP HTRF assay for Gi coupled receptor
CHO-K1 cells expressing recombinant human mGlu7 receptor (FAST-0154C) grown prior to the test […]
inmedia without antibiotic are detached by gentle flushing with PBS-EDTA (5 mM EDTA), recovered […]
by centrifugation and resuspended in assay buffer (KRH: 5 mM KCl, 1.25 mM MgSO4, 124 mM NaCl, […]
25 mM HEPES, 13.3 mM Glucose, 1.25 mM KH2PO4, 1.45 mM CaCl2, 0.5 g/L BSA, supplemented with 1 […]
Dose response curves are performed in parallel with the reference compounds.
For antagonist/NAM test (96 well): 12 µl of cells are mixed with 6 µl of the test compound at increasing concentrations and then incubated 10 min. Thereafter 6 µl of the mix of the forskolin and reference agonist is added at a final concentration corresponding to the historical EC80. The plates are then incubated for 30 min at room temperature. After addition of the lysis buffer and 1 hour incubation, cAMP concentrations are estimated, according to the manufacturer specification, with the HTRF kit. […]

[2] = Pharmacokinetics and brain uptake in mice after i.p. administration; format: in vivo, mouse (Albino Swiss); conditions: mouse Albino Swiss, 10 mg/kg i.p.; for AUC(0-t): ip
Method: Compounds were administered to mice at a dose of 10 mg/kg i.p. Plasma and tissue samples were collected at 0.25, 0.50, 1.0, 2.0, 4.0, 6.0, and 24 h. Plasma and tissue samples from all drug-treated animals were thawed at room temperature prior to use. The standard protocol for sample preparation was used: 200 μL of acetonitrile was added to the Eppendorf tubes with 50 μL of studied plasma samples or tissue homogenate. Samples were mixed for 5 min on a mixer at 25 °C and 1400 rpm. The tubes were then centrifuged at 2000× g for 15 min at 4 °C. A total of 180 μL of each supernatant was transferred to a plate well. Finally, each sample was injected into the LC–MS column. Calibration curve serial dilution method: Plasma was spiked with a standard at different concentrations. Acetonitrile was added. After mixing and centrifugation, the supernatant was collected.
Chromatographic conditions. Plasma and tissue samples from all drug-treated animals at selected time points were analyzed using a previously developed nonvalidated LC–MS/MS method. […] The LC–MS analysis was carried out on a Bruker amaZon SL mass spectrometer using the positive/negative ion ESI mode. Chromatographic separation was achieved on an Ascentis Express C18 column (5 cm × 2.1 mm, 2.7 μM, Supelco Technologies) at room temperature with a thermostatted column oven. A gradient elution of eluents A (acetonitrile (LiChrosolv, Reag. Ph Eur) + 0.1% formic acid (Sigma Aldrich, 98–100%)) and B (water + 0.1% formic acid) were used for separation. The flow rate was set at 1 mL/min. The injection volume was 20 μL, and the time of injection was 4 min.
Mass spectrometric conditions. An ion trap mass spectrometer (Bruker amaZon SL, Bruker, Bremen, Germany) was equipped with an electrospray source operating in the positive/negative ion mode. Data were collected and processed using Bruker Quant Analysis (Bruker, Bremen, Germany) software. A quantification of the analytes was performed in the SIM mode.

[3] = system: animal models of schizophrenia; conditions: cited from earlier work
[4] = Metabolic stability in mouse microsomal fraction; format: in vitro ADME; conditions: 1 µM, mouse microsomes 0.3 mg/mL, NADPH-regenerating system
Method: A metabolic stability assay was performed using a mouse microsomal fraction (phase I of metabolism) obtained from XenoTech (Kansas City, MO, USA). Compounds for metabolic stability testing were prepared as 10 mM stock solutions in DMSO. Compounds were incubated in triplicate at a 1 µM initial concentration with the microsomal fraction in the presence of NRS (NADPH-regenerating system, 1.3 mM). The final microsomal incubation (0.3 mg/mL) contained the components mentioned below in a pH 7.4 phosphate buffer. Control incubations were conducted without cofactors. The reference compound verapamil was used as a positive control. Incubations were carried out for 1 h on 96-well plates using a heated (+37 °C) orbital shaker (350 rpm). After incubation, the reaction was quenched through the addition of cold acetonitrile. The plate containing the samples was centrifuged at 2000 rpm for 15 min at 4 °C. The supernatants were analyzed using LC–MS.
The HPLC–MS consisted of a Dionex, Ultimate 3000 HPLC, and a Bruker Daltonics amaZon SL mass spectrometer (ESI-IT). The conditions were as follows: Column HPLC Ascentis Express C18 (5 cm × 2.1 mm, 2.7 µm) and an injection volume of 20 µL. An acetonitrile gradient was used with 0.1% formic acid in water at a constant flow rate of 1 mL/min. The programming was as follows: 0–0.5 min 5% ACN, 0.5–3.0 increase of 5–95%, 3.0–3.3 remaining at 95% ACN, 3.3–3.4 min decrease of 95–5% ACN, and 3.4–4.0 min 5% ACN. Samples were analyzed in a single-ion monitoring scan mode in positive mode. The conditions of the main parameters were as follows: a trap drive of 48.2, capillary exit voltage of 140.0 V, dry temperature (set) of 300 °C, nebulizer pressure (set) of 40.00 psi, dry gas flow (set) of 9.00 L/min HV capillary voltage of −4500 V, HV end-plate offset voltage of −500 V.
The percent loss of compounds was calculated through the normalization of the peak area against time 0, where the peak area at T0 was 100%. The elimination rate constant (h) was determined from the plot of ln (percent loss of compound) as a time function and equal to the minor value of the linear curve slope.

[5] = Kinetic solubility assay in HBSS buffer; format: physicochemical; conditions: aqueous buffer, kinetic from dmso stock; Hanks-HEPES (HBSS buffer), pH 7.4; read-out: KS (kinetic solubility)
Method: The kinetic solubility assay was performed to determine the solubility of the compounds in the in vitro assay conditions. The assay investigated the solubility based on the precipitation process in the HBSS buffer. For the preparation of the assay buffer, the following compounds were dissolved in 800 mL purified water: • − 130 mM sodium chloride, NaCl (7.600 g); • − 5.4 mM potassium chloride, KCl (0.403 g); • − 0.8 mM magnesium sulfate, MgSO4 × 7H2O (0.197 g); • − 0.9 mM sodium phosphate monobasic, NaH2PO4 × 2H2O (0.140 g); • − 25 mM D-glucose (4.500 g); • − 20 mM HEPES sodium salt (5.210 g).
The buffer was adjusted to pH 7.4, and the following compound was added to the mixture: • − 1.8 mM calcium chloride, CaCl2 × 2H2O (0.265 g).
The total volume was adjusted to 1000 mL.
The investigated compounds were diluted (in triplicate) with the HBSS buffer at pH 7.4 to a final concentration of 500 μM.
The mixture was shaken on a filter plate at 500 rpm for 1.5 h at RT. After incubation, the filter plate was placed inside a vacuum manifold and filtrated. Samples were collected and the concentration of the filtrate was determined spectrophotometrically by measuring the UV–VIS absorption spectrum. Concentrations were calculated based on equations resulting from the calibration curves (in duplicates, 8 calibration points, dilution Factor ×2, 500 µM → 3.91 µM, including blank sample).

% inhibition at maximal concentration ([1]; range 1 nM – 25 µM): 100%
IC50 ([1]; read-out: IC50 (CHO-K1, Figure S4)): 270 nM
AUC(0-t) ([2]; brain, read-out: AUC0-t, brain): 8.98 µM·h
AUC(0-t) ([2]; plasma, read-out: AUC0-t, plasma): 13.5 µM·h
Cmax, brain ([2]; brain): 5.42 µM/L
Tmax, plasma ([2]; plasma): 15 min
MML (metabolic stability liver microsome mouse) [4]: 49.78 % remaining after 60 min
solubility kinetic at 1.5 h [5]: 5.6 µM (≈ 1.87 µg/mL)
SMILES: COc1ccc(-c2cc3onc(-c4ccncc4)c3c(=O)n2C)cc1 [MMPIP, reference compound]
MK-801-induced disruptions in social interaction [3]: not observed
prepulse inhibition (PPI) [3]: not observed
activity in animal models of schizophrenia ([3]; mGlu7 NAMs): antipsychotic activity
